Like-named read-outs stand apart in the source and are kept apart here.
Columns and labels:
human μ opiate receptor = biological target: T1, human μ opiate receptor (Homo sapiens, UniProt P35372); assay: Affinity for the human μ opiate receptor ([3H]-naloxone displacement, CHO-K1 receptor membrane preparation, SPA); assay type: binding; conditions: 1.5 h, test concentration 1 μM
T1 construct: purchased PerkinElmer Life Sciences, Zaventem, Belgium RB-HOM; host or cells: CHO-K1 cells (membrane preparation)
T1 sequence (P35372 whole entry): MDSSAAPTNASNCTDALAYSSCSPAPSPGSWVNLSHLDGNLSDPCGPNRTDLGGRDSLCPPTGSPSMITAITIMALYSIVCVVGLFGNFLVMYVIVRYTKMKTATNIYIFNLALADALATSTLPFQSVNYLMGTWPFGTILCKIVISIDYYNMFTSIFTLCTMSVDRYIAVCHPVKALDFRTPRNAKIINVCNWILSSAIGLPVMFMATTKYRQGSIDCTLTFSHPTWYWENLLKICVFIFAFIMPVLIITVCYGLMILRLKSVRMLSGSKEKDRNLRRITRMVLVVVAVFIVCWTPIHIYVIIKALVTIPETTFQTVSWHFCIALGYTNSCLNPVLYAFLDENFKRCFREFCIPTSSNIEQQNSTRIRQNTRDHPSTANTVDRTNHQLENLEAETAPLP
Procedure, shortened: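 Displacement of 1 nmol/l [3H]-naloxone measured by SPA counting after 90 min at room temperature, using human μ receptor CHO-K1 membrane preparation in Tris-HCl buffer with 0.06% BSA. Test substances at 1 μmol/l give % inhibition; dilution series yield IC50, then Ki (Cheng-Prusoff); non-specific binding with 100 μmol/l naloxone.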

[1] = biological target: T2, human bradykinin 1 receptor (B1R) (Homo sapiens, UniProt P46663); assay: Functional investigation on the human bradykinin 1 receptor (B1R), Ca2+ FLIPR assay in CHO K1 hB1R cells; assay type: cell-based; conditions: CHO-K1, B1R antagonism human, test substance 10 μM, read-out: B1R Ant. h [10 μM] % Inhibition
T2 construct: expressed in transfected cells; host or cells: CHO K1 cells
T2 sequence (P46663 1-353): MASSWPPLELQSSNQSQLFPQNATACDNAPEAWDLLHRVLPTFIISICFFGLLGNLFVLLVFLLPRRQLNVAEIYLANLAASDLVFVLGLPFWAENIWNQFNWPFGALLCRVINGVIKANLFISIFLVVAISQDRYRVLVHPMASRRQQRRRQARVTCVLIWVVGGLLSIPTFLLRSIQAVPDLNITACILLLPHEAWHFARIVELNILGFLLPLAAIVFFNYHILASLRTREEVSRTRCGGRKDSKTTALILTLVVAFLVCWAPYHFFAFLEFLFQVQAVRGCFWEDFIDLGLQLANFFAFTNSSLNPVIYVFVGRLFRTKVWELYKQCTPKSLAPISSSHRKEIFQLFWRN
Procedure, shortened: (§1)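 Fluo-4 Ca2+ readout, peak fluorescence. Stable CHO K1 transfectants; compound pre-incubated 10-20 min, then EC80 agonist—Lys-Des-Arg9-BK for hB1R, Des-Arg9-BK for rB1R. % inhibition vs maximal inhibition; IC50 from multiple concentrations, duplicate/triplicate, ≥2 independent runs.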

[2] = biological target: T3, bradykinin 1 receptor (B1R) of the rat (Rattus norvegicus, UniProt P97583); assay: Functional investigation on the rat bradykinin 1 receptor (B1R), Ca2+ FLIPR assay in CHO K1 rB1R cells; assay type: cell-based; conditions: CHO-K1, B1R antagonism rat, test substance 10 μM, read-out: B1R Ant. r [10 μM] % Inhibition
T3 construct: expressed in transfected cells; host or cells: CHO K1 cells
T3 sequence (P97583 1-337): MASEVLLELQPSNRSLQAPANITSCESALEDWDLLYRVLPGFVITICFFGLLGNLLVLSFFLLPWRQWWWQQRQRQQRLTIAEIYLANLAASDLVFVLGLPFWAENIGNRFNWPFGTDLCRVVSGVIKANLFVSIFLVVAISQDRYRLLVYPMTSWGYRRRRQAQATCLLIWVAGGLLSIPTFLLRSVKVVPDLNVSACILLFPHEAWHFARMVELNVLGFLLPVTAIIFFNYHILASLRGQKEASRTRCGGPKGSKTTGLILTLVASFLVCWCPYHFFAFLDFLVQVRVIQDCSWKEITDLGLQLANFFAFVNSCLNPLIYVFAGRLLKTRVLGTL
Procedure, shortened: as §1

[3] = Table 3, to be read in the same way as Table 1, read-out: μ
[4] = % inhibition compared with the maximum achievable inhibition

| SMILES | inhibition at 1 µM (human μ opiate receptor; [3]) | inhibition at 10 µM ([1]; Ca2+ FLIPR, CHO K1 hB1R cells) | inhibition at 10 µM ([2]; Ca2+ FLIPR, CHO K1 rB1R cells) | inhibition at 1 µM (human μ opiate receptor; Table 2, read-out: μ receptor) | inhibition at 10 µM [1, 4] | inhibition at 10 µM [2, 4] |
| --- | --- | --- | --- | --- | --- | --- |
| O=C(COCC1CCCCN1S(=O)(=O)c1c(Cl)cc(Cl)cc1Cl)NC1CCC(C(CCc2ccccc2)N2CCCCC2)CC1 (stereo not drawn) [Example 738, N-(4-(3-phenyl-1-(piperidin-1-yl)propyl)cyclohexyl)-2-((1-(2,4,6-trichlorophenylsulfonyl)piperidin-2-yl)methoxy)acetamide] | 77% | 75% | 62% |  |  |  |
| COc1cc(C)c(S(=O)(=O)N(C)CCOCC(=O)NC2CCC(C(c3ccccc3)N3CCOCC3)CC2)c(C)c1C (stereo not drawn) [Example 619, 2-{2-[(4-methoxy-2,3,6-trimethylbenzenesulfonyl)-methylamino]-ethoxy}-N-[4-(morpholin-4-yl-phenylmethyl)-cyclohexyl]-acetamide] |  | 56% | 12% | -11% |  |  |
| O=C(COCC1CCCCN1S(=O)(=O)c1c(Cl)cc(Cl)cc1Cl)NCC1CCC(C(c2ccccc2)N2CCOCC2)CC1 (stereo not drawn) [Example 712, N-((4-(morpholino(phenyl)methyl)cyclohexyl)methyl)-2-((1-(2,4,6-trichlorophenylsulfonyl)piperidin-2-yl)methoxy)acetamide] | 40% | 46% | 100% |  |  |  |
| CN(CCOCC(=O)NCC1CCC(C(CCc2ccccc2)N2CCCC2)CC1)S(=O)(=O)c1c(Cl)cccc1Cl (stereo not drawn) [Example 722, 2-(2-(2,6-dichloro-N-methylphenylsulfonamido)ethoxy)-N-((4-(3-phenyl-1-(pyrrolidin-1-yl)propyl)cyclohexyl)methyl)acetamide] | 32% | 101% | 89% |  |  |  |
| COc1cc(C)c(S(=O)(=O)N(C)CCOCC(=O)N2CCC(C(CCc3ccccc3)N3CCN(C)CC3)CC2)c(C)c1 (stereo not drawn) [Example 801, 4-methoxy-N,2,6-trimethyl-N-(2-(2-(4-(1-(4-methylpiperazin-1-yl)-3-phenylpropyl)piperidin-1-yl)-2-oxoethoxy)ethyl)benzenesulfonamide] | 21% |  |  |  | 106% | 97% |
| O=C(COCC1CCCN1S(=O)(=O)c1c(Cl)cc(Cl)cc1Cl)NC1CCC(C(CCc2ccccc2)N2CCOCC2)CC1 (stereo not drawn) [Example 696, N-(4-(1-morpholino-3-phenylpropyl)cyclohexyl)-2-((1-(2,4,6-trichlorophenylsulfonyl)pyrrolidin-2-yl)methoxy)acetamide] | 21% | 43% | 91% |  |  |  |
| COc1cc(C)c(S(=O)(=O)N(C)CCOCC(=O)NCC2CCC(C(CCc3ccccc3)N3CCCC3)CC2)c(C)c1 (stereo not drawn) [Example 720, 2-(2-(4-methoxy-N,2,6-trimethylphenylsulfonamido)ethoxy)-N-((4-(3-phenyl-1-(pyrrolidin-1-yl)propyl)cyclohexyl)methyl)acetamide] | 26% | 101% | 101% |  |  |  |
| CN(CCOCC(=O)NCC1CCC(C(c2ccccc2)N2CCOCC2)CC1)S(=O)(=O)c1ccc(Cl)cc1Cl (stereo not drawn) [Example 705, 2-(2-(2,4-dichloro-N-methylphenylsulfonamido)ethoxy)-N-((4-(morpholino(phenyl)methyl)cyclohexyl)methyl)acetamide] | 8% | 49% | -9% |  |  |  |
| CN1CCN(C(c2ccccc2)C2CCC(NC(=O)COC3CCN(S(=O)(=O)c4c(Cl)cc(Cl)cc4Cl)C3)CC2)CC1 (stereo not drawn) [Example 686, N-(4-((4-methylpiperazin-1-yl)(phenyl)methyl)cyclohexyl)-2-(1-(2,4,6-trichlorophenylsulfonyl)pyrrolidin-3-yloxy)acetamide] | 30% | 80% | 29% |  |  |  |
| COc1cc(C)c(S(=O)(=O)N2CCCC(COCC(=O)NCC3CCC(C(CCc4ccccc4)N4CCOCC4)CC3)C2)c(C)c1 (stereo not drawn) [Example 756, 2-((1-(4-methoxy-2,6-dimethylphenylsulfonyl)piperidin-3-yl)methoxy)-N-((4-(1-morpholino-3-phenylpropyl)cyclohexyl)methyl)acetamide] | 5% | 64% | 43% |  |  |  |
| COc1cc(C)c(S(=O)(=O)N(C)CCOCC(=O)N2CCC(C(c3ccccc3)N3CCN(C)CC3)CC2)c(C)c1 (stereo not drawn) [Example 798, 4-methoxy-N,2,6-trimethyl-N-(2-(2-(4-((4-methylpiperazin-1-yl)(phenyl)methyl)piperidin-1-yl)-2-oxoethoxy)ethyl)benzenesulfonamide] | 19% |  |  |  | 110% | 100% |
| COc1cc(C)c(S(=O)(=O)N2CCCCC2COCC(=O)NCC2CCC(C(CCc3ccccc3)N3CCCC3)CC2)c(C)c1 (stereo not drawn) [Example 736, 2-((1-(4-methoxy-2,6-dimethylphenylsulfonyl)piperidin-2-yl)methoxy)-N-((4-(3-phenyl-1-(pyrrolidin-1-yl)propyl)cyclohexyl)methyl)acetamide] | 34% | 103% | 102% |  |  |  |
| COc1cc(C)c(S(=O)(=O)N2CCCC2COCC(=O)NC2CCC(C(c3ccccc3)N3CCOCC3)CC2)c(C)c1 (stereo not drawn) [Example 694, 2-((1-(4-methoxy-2,6-dimethylphenylsulfonyl)pyrrolidin-2-yl)methoxy)-N-(4-(morpholino(phenyl)methyl)cyclohexyl)acetamide] | 10% | 54% | 104% |  |  |  |
| COc1cc(C)c(S(=O)(=O)N(C)CCOCC(=O)N2CCC(C(Cc3ccccc3)N3CCN(C)CC3)CC2)c(C)c1 (stereo not drawn) [Example 803, 4-methoxy-N,2,6-trimethyl-N-(2-(2-(4-(1-(4-methylpiperazin-1-yl)-2-phenylethyl)piperidin-1-yl)-2-oxoethoxy)ethyl)benzenesulfonamide] | 13% |  |  |  | 108% | 99% |
| COc1cc(C)c(S(=O)(=O)N(C)CCOCC(=O)NC2CCC(C(CCc3ccccc3)N3CCOCC3)CC2)c(C)c1 (stereo not drawn) [Example 662, 2-(2-(4-methoxy-N,2,6-trimethylphenylsulfonamido)ethoxy)-N-(4-(1-morpholino-3-phenylpropyl)cyclohexyl)acetamide] | 3% | 104% | 101% |  |  |  |
| CN(CCOCC(=O)NCC1CCC(C(c2ccccc2)N2CCOCC2)CC1)S(=O)(=O)c1c(Cl)cc(Cl)cc1Cl (stereo not drawn) [Example 639, N-((4-(morpholino(phenyl)methyl)cyclohexyl)methyl)-2-(2-(2,4,6-trichloro-N-methylphenylsulfonamido)ethoxy)acetamide] | 3% | 53% | 41% |  |  |  |
| CN(CCOCC(=O)NCC1CCC(C(CCc2ccccc2)N2CCCC2)CC1)S(=O)(=O)c1ccc(Cl)cc1Cl (stereo not drawn) [Example 717, 2-(2-(2,4-dichloro-N-methylphenylsulfonamido)ethoxy)-N-((4-(3-phenyl-1-(pyrrolidin-1-yl)propyl)cyclohexyl)methyl)acetamide] | 22% | 100% | 88% |  |  |  |
| COc1cc(C)c(S(=O)(=O)N2CCCCC2COCC(=O)N2CCC(C(CCc3ccccc3)N3CCN(C)CC3)CC2)c(C)c1 (stereo not drawn) [Example 806, 2-((1-(4-methoxy-2,6-dimethylphenylsulfonyl)piperidin-2-yl)methoxy)-1-(4-(1-(4-methylpiperazin-1-yl)-3-phenylpropyl)piperidin-1-yl)ethanone] | 12% |  |  |  | 109% | 99% |
| O=C(COC1CCN(S(=O)(=O)c2c(Cl)cc(Cl)cc2Cl)C1)NCC1CCC(C(CCc2ccccc2)N2CCOCC2)CC1 (stereo not drawn) [Example 745, N-((4-(1-morpholino-3-phenylpropyl)cyclohexyl)methyl)-2-(1-(2,4,6-trichlorophenylsulfonyl)pyrrolidin-3-yloxy)acetamide] | 8% | 45% | 44% |  |  |  |

— US8106055B2, “Substituted amide compounds” (Gruenenthal GmbH, priority 2007, dated 2012)
